Assay results: the NIST ThermoML archive (doi:10.1016/j.jct.2017.06.001)
Numbers after ± are expanded uncertainties.

Test: xn = mol fraction of the nth substance listed
Conditions: 303.15 K, 100 kPa, Liquid, Frequency=5 MHz, Pulse-echo method

OCCCCCO [1,5-pentanediol] + O
Conditions | speed of sound [m/s]
x1 = 0.1172 | 1668.9 ± 1.2
x1 = 0.1188 | 1669.4 ± 1.2
x1 = 0.1225 | 1670.4 ± 1.2
x1 = 0.1232 | 1670.5 ± 1.2
x1 = 0.127 | 1671.5 ± 1.2
x1 = 0.1286 | 1671.8 ± 1.2
x1 = 0.1312 | 1672.4 ± 1.2
x1 = 0.1344 | 1673 ± 1.2
x1 = 0.135 | 1673.1 ± 1.2
x1 = 0.1389 | 1673.8 ± 1.2
x1 = 0.1394 | 1673.8 ± 1.2
x1 = 0.1443 | 1674.5 ± 1.3
x1 = 0.1445 | 1674.6 ± 1.3
x1 = 0.1496 | 1675.2 ± 1.3
x1 = 0.1507 | 1675.3 ± 1.3
x1 = 0.1548 | 1675.7 ± 1.3
x1 = 0.1571 | 1675.9 ± 1.3
x1 = 0.1598 | 1676.1 ± 1.3
x1 = 0.163 | 1676.3 ± 1.3
x1 = 0.1658 | 1676.5 ± 1.3
x1 = 0.1708 | 1676.7 ± 1.3
x1 = 0.1802 | 1676.9 ± 1.3
x1 = 0.1897 | 1677 ± 1.3
x1 = 0.1979 | 1676.8 ± 1.3
x1 = 0.2069 | 1676.6 ± 1.3
x1 = 0.2148 | 1676.3 ± 1.3
x1 = 0.2235 | 1675.9 ± 1.3
x1 = 0.2319 | 1675.5 ± 1.3
x1 = 0.2409 | 1674.9 ± 1.3
x1 = 0.2504 | 1674.3 ± 1.3
x1 = 0.2626 | 1673.4 ± 1.4
x1 = 0.2732 | 1672.6 ± 1.4
x1 = 0.2834 | 1671.8 ± 1.4
x1 = 0.2953 | 1670.8 ± 1.4
x1 = 0.3083 | 1669.6 ± 1.4
x1 = 0.3214 | 1668.4 ± 1.4
x1 = 0.3389 | 1666.8 ± 1.4
x1 = 0.3516 | 1665.5 ± 1.4
x1 = 0.3648 | 1664.2 ± 1.4
x1 = 0.3773 | 1662.8 ± 1.5
x1 = 0.3937 | 1661.1 ± 1.5
x1 = 0.4071 | 1659.6 ± 1.5
x1 = 0.4199 | 1658.1 ± 1.5
x1 = 0.4346 | 1656.3 ± 1.5
x1 = 0.447 | 1654.8 ± 1.5
x1 = 0.4637 | 1652.8 ± 1.6
x1 = 0.4812 | 1650.5 ± 1.6
x1 = 0.4955 | 1648.6 ± 1.6
x1 = 0.5124 | 1646.4 ± 1.6
x1 = 0.5315 | 1643.8 ± 1.6
x1 = 0.5497 | 1641.2 ± 1.7
x1 = 0.5687 | 1638.5 ± 1.7
x1 = 0.5883 | 1635.7 ± 1.7
x1 = 0.6098 | 1632.7 ± 1.7
x1 = 0.63 | 1629.8 ± 1.8
x1 = 0.6445 | 1627.7 ± 1.8
x1 = 0.6622 | 1625.2 ± 1.8
x1 = 0.6847 | 1622 ± 1.8
x1 = 0.7039 | 1619.3 ± 1.9
x1 = 0.7252 | 1616.4 ± 1.9
x1 = 0.7448 | 1613.7 ± 1.9
x1 = 0.7674 | 1610.7 ± 2
x1 = 0.7881 | 1608.1 ± 2
x1 = 0.8098 | 1605.3 ± 2
x1 = 0.8318 | 1602.6 ± 2
x1 = 0.8478 | 1600.6 ± 2.1
x1 = 0.8678 | 1598.2 ± 2.1
x1 = 0.8839 | 1596.3 ± 2.1
x1 = 0.9005 | 1594.4 ± 2.1
x1 = 0.9185 | 1592.2 ± 2.2
x1 = 0.9359 | 1590.2 ± 2.2
x1 = 0.9494 | 1588.6 ± 2.2
x1 = 0.9623 | 1587.1 ± 2.2
x1 = 0.9723 | 1585.9 ± 2.3
x1 = 0.9822 | 1584.7 ± 2.3
x1 = 0.9892 | 1583.9 ± 2.3
x1 = 0.9947 | 1583.2 ± 2.3
x1 = 0.9972 | 1582.9 ± 2.3
x1 = 1 | 1582.5 ± 2.3
